The record followed here is patent US7425557B2, “Inhibitors of glycogen synthase kinase 3” (Novartis Vaccines and Diagnostics, Inc., priority 1998, dated 2008).

SMILES strings stand for the structures. Some results are limits rather than exact numbers.

human GSK3β, sequence (P49841 whole entry): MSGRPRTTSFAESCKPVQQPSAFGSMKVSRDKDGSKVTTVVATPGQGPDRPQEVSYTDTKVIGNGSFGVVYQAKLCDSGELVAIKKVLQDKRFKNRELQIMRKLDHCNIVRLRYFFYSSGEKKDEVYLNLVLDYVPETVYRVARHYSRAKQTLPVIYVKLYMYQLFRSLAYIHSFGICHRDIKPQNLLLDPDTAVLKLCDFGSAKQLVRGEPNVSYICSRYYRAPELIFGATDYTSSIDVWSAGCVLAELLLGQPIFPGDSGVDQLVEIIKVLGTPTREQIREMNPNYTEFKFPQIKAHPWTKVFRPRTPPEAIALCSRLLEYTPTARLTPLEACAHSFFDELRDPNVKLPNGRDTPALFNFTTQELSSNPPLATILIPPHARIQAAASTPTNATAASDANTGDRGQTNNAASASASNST

The experiment addresses human GSK3β (Homo sapiens, UniProt P49841). Kind of experiment: Screening for GSK3 inhibitory activity using a cell-free assay. The settings on record: read-out: IC50 with respect to GSK3. It is filed as biochemical. The gist of the method: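 Radiometric cell-free assay with recombinant human GSK3β phosphorylating a biotinylated peptide substrate for 3 h. Reactions were stopped with 50 μM ATP/20 mM EDTA and captured on streptavidin plates. Incorporated radiolabel was counted by scintillation and plotted against compound concentration.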
As a reminder, the IC50 is the concentration that inhibits the measured activity by half. As to `CCOC(=O)c1cnc(NCCNc2ccc([N+](=O)[O-])cn2)nc1-c1ccc(Br)cc1` [ethyl 4-(4-bromophenyl)-2-({2-[(5-nitro(2-pyridyl))amino]ethyl}amino)pyrimidine-5-carboxylate], the IC50 was at most 1 µM. To `CCCCOc1ccc(-c2nc(NCCNc3ccc([N+](=O)[O-])cn3)ncc2C(=O)OCC)cc1` [ethyl 4-(4-butoxyphenyl)-2-({2-[(5-nitro(2-pyridyl))amino]ethyl}amino)pyrimidine-5-carboxylate] belongs at most 10 µM; to `CCOC(=O)c1c(CC)nc(NCCNc2ccc(C#N)cn2)nc1-c1ccc(C(N)=O)cc1` [ethyl 4-(4-carbamoylphenyl)-2-({2-[(5-cyano(2-pyridyl))amino]ethyl}amino)-6-ethylpyrimidine-5-carboxylate], at most 1 µM; to `CCOC(=O)c1c(-c2ccc(C(N)=O)cc2)nc(NCCNc2ccc([N+](=O)[O-])cn2)nc1-c1ccc([N+](=O)[O-])cc1` [ethyl 4-(4-carbamoylphenyl)-2-({2-[(5-nitro(2-pyridyl))amino]ethyl}-amino)-6-(4-nitrophenyl)pyrimidine-5-carboxylate], at most 1 µM. As for `CCOC(=O)c1c(CC)nc(NCCNc2ncccc2[N+](=O)[O-])nc1-c1ccc(C(N)=O)cc1` [ethyl 4-(4-carbamoylphenyl)-6-ethyl-2-({2-[(3-nitro(2-pyridyl))amino]ethyl}amino)pyrimidine-5-carboxylate], the figure is at most 10 µM; as for `CCOC(=O)c1c(CC)nc(NCCNc2ccc([N+](=O)[O-])cn2)nc1-c1ccc(C(N)=O)cc1` [ethyl 4-(4-carbamoylphenyl)-6-ethyl-2-({2-[(5-nitro(2-pyridyl))amino]ethyl}amino)pyrimidine-5-carboxylate], at most 1 µM; as for `CCOC(=O)c1c(CC)nc(NCCCNc2ccc([N+](=O)[O-])cn2)nc1-c1ccc(C(N)=O)cc1` [ethyl 4-(4-carbamoylphenyl)-6-ethyl-2-({3-[(5-nitro(2-pyridyl))amino]propyl}amino)pyrimidine-5-carboxylate], at most 10 µM. As for `CCOC(=O)c1c(CC)nc(NCCNc2ccc(C(F)(F)F)cn2)nc1-c1ccc(C(N)=O)cc1` [ethyl 4-(4-carbamoylphenyl)-6-ethyl-2-[(2-{[5-(trifluoromethyl)(2-pyridyl)]amino}-ethyl)amino]pyrimidine-5-carboxylate], the figure is at most 10 µM; as for `CCOC(=O)c1c(CC)nc(NCCNc2ccccn2)nc1-c1ccc(C(N)=O)cc1` [ethyl 4-(4-carbamoylphenyl)-6-ethyl-2-{[2-(2-pyridylamino)ethyl]-amino}pyrimidine-5-carboxylate], at most 10 µM. On to `CCOC(=O)c1c(CC)nc(NCCNc2ncccn2)nc1-c1ccc(C(N)=O)cc1` [ethyl 4-(4-carbamoylphenyl)-6-ethyl-2-{[2-(pyrimidin-2-ylamino)ethyl]amino}pyrimidine-5-carboxylate], for which the IC50 is at most 10 µM. To `CCOC(=O)c1cnc(NCCNc2ccc([N+](=O)[O-])cn2)nc1-c1ccc(Cl)cc1` [ethyl 4-(4-chlorophenyl)-2-({2-[(5-nitro(2-pyridyl))amino]ethyl}amino)pyrimidine-5-carboxylate] belongs at most 1 µM; to `CCOC(=O)c1c(CC)nc(NCCNc2ccc([N+](=O)[O-])cn2)nc1-c1ccc(C#N)cc1` [ethyl 4-(4-cyano-phenyl)-6-ethyl-2-({2-[(5-nitro(2-pyridyl))amino]ethyl}amino)pyrimidine-5-carboxylate], at most 1 µM; to `CCOC(=O)c1cnc(NCCNc2cc(C)c([N+](=O)[O-])cn2)nc1-c1ccc(C#N)cc1` [ethyl 4-(4-cyanophenyl)-2-({2-[(4-methyl-5-nitro(2-pyridyl))amino]ethyl}amino)pyrimidine-5-carboxylate], at most 1 µM. To `CCOC(=O)c1cnc(NCCNc2ccc([N+](=O)[O-])cc2)nc1-c1ccc(C#N)cc1` [ethyl 4-(4-cyanophenyl)-2-({2-[(4-nitrophenyl)amino]ethyl}amino)-pyrimidine-5-carboxylate] belongs at most 1 µM; to `CCOC(=O)c1c(-c2ccc(C#N)cc2)nc(NCCNc2ccc([N+](=O)[O-])cn2)nc1-c1ccc([N+](=O)[O-])cc1` [ethyl 4-(4-cyanophenyl)-2-({2-[(5-nitro(2-pyridyl))amino]ethyl}amino)-6-(4-nitrophenyl)pyrimidine-5-carboxylate], at most 1 µM; to `CCOC(=O)c1cnc(NCCNc2ccc([N+](=O)[O-])cn2)nc1-c1ccc(C#N)cc1` [ethyl 4-(4-cyanophenyl)-2-({2-[(5-nitro(2-pyridyl))amino]ethyl}amino)pyrimidine-5-carboxylate], at most 1 µM. Take `CCOC(=O)c1cnc(NCCc2ccccn2)nc1-c1ccc(C#N)cc1` [ethyl 4-(4-cyanophenyl)-2-[(2-(2-pyridyl)ethyl)amino]-pyrimidine-5-carboxylate]: the IC50 is at most 10 µM. To `CCNC(=O)c1ccc(NCCNc2ncc(C(=O)OCC)c(-c3ccc(C#N)cc3)n2)nc1` [ethyl 4-(4-cyanophenyl)-2-[(2-{[5-(N-ethylcarbamoyl)(2-pyridyl)]amino}-ethyl)amino]pyrimidine-5-carboxylate] belongs at most 10 µM; to `CCOC(=O)c1cnc(NCCNc2ccc(C(=O)N3CCOCC3)cn2)nc1-c1ccc(C#N)cc1` [ethyl 4-(4-cyanophenyl)-2-[(2-{[5-(morpholin-4-ylcarbonyl)(2-pyridyl)]amino}ethyl)amino]pyrimidine-5-carboxylate], at most 10 µM; to `CCOC(=O)c1cnc(NCCNc2ccc(C(F)(F)F)cn2)nc1-c1ccc(C#N)cc1` [ethyl 4-(4-cyanophenyl)-2-[(2-{[5-(trifluoromethyl)(2-pyridyl)]amino}ethyl)-amino]pyrimidine-5-carboxylate], at most 1 µM. Consider `CCOC(=O)c1cnc(NCCNc2ccc([N+](=O)[O-])c(NC)n2)nc1-c1ccc(C#N)cc1` [ethyl 4-(4-cyanophenyl)-2-[(2-{[6-(methylamino)-5-nitro(2-pyridyl)]amino}ethyl)amino]pyrimidine-5-carboxylate], for which the IC50 was at most 10 µM.

`CCOC(=O)c1cnc(NCCNc2ccc3ccccc3n2)nc1-c1ccc(C#N)cc1` [ethyl 4-(4-cyanophenyl)-2-{[2-(2-quinolylamino)ethyl]amino}pyrimidine-5-carboxylate]: the half-maximal inhibitory concentration (IC50) is at most 10 µM. As for `CCOC(=O)c1cnc(NCCc2cccc(OC)c2)nc1-c1ccc(C#N)cc1` [ethyl 4-(4-cyanophenyl)-2-{[2-(3-methoxyphenyl)ethyl]amino}pyrimidine-5-carboxylate], the figure is at most 10 µM; as for `CCOC(=O)c1cnc(NCCNc2ncccn2)nc1-c1ccc(C#N)cc1` [ethyl 4-(4-cyanophenyl)-2-{[2-(pyrimidin-2-ylamino)ethyl]amino}pyrimidine-5-carboxylate], at most 10 µM. With `CCOC(=O)c1cnc(NCCNc2ccc([N+](=O)[O-])cn2)nc1-c1ccc(CC)cc1` [ethyl 4-(4-ethylphenyl)-2-({2-[(5-nitro(2-pyridyl))amino]ethyl}amino)pyrimidine-5-carboxylate], the half-inhibitory concentration (IC50) was at most 1 µM. As for `CCOC(=O)c1cnc(NCCNc2ccc([N+](=O)[O-])cn2)nc1-c1ccc(F)cc1` [ethyl 4-(4-fluorophenyl)-2-({2-[(5-nitro(2-pyridyl))amino]ethyl}amino)pyrimidine-5-carboxylate], the figure is at most 1 µM.
